In ChEMBL document CHEMBL3745618, “Identification of Non-nucleoside Human Ribonucleotide Reductase Modulators” (J Med Chem, 2015):
Non-standard residues stand in square brackets, D forms with d. Residues, ends and D or L forms follow the SMILES beside them. Sar = CNCC(=O)O

test system: not listed separately; experiment: Growth inhibition of human HCT116 cells assessed as 1-relative growth at 10 uM after 3 days by DNA dye binding assay; type: functional, HCT-116

In order of rising Activity:
1. CCCCCCCCCCCCCCCC(=O)N[C@@H](CCCCN)C(=O)N[C@@H](CCCCN)C(=O)OC  -0.089
2. CC(NCCCCCO)c1cc(OCc2ccccc2)cc(OCc2ccccc2)c1 (stereo unspecified)  0.036
3. CCCOc1ccc(C(=O)OCCN(CC)CC)cc1NS(=O)(=O)/C=C/c1ccccc1  0.043
4. CCOC(=O)C[C@@H](CC(=O)NCCN[C@H](C)c1ccc(O)c(C(=O)OC)c1)OC(C)=O  0.096
5. CNCC(=O)N[C@@H](CCCNC(=N)N)C(=O)N[C@H](C(=O)N[C@@H](Cc1ccc(O)cc1)C(=O)N[C@H](C(=O)N[C@@H](Cc1cnc[nH]1)C(=O)O)C(C)C)C(C)C (H-[Sar]RVYVH-OH)  0.158
6. CCCCCCCCCCCCCCNC(=O)[C@@H](N)CCN  0.69
7. OC(COc1ccc(OCC(O)CN2CCN(C3c4ccccc4-c4ccccc43)CC2)cc1)CN1CCN(C2c3ccccc3-c3ccccc32)CC1 (stereo unspecified)  0.88

test system: not listed separately; experiment: Growth inhibition of human HCT116 cells assessed as 1-relative growth at 1 uM after 3 days by DNA dye binding assay; type: functional, HCT-116

In order of falling Activity:
1. CNCC(=O)N[C@@H](CCCNC(=N)N)C(=O)N[C@H](C(=O)N[C@@H](Cc1ccc(O)cc1)C(=O)N[C@H](C(=O)N[C@@H](Cc1cnc[nH]1)C(=O)O)C(C)C)C(C)C (H-[Sar]RVYVH-OH)  0.108
2. CCOC(=O)C[C@@H](CC(=O)NCCN[C@H](C)c1ccc(O)c(C(=O)OC)c1)OC(C)=O  0.098
3. CCCCCCCCCCCCCCNC(=O)[C@@H](N)CCN  0.072
4. CC(C)(NC(=O)CN1C(=O)c2ccccc2C1=O)C(=O)NCCCC[C@H](NC(=O)CC(O)(C(F)(F)F)C(F)(F)F)C(=O)O  0.057
5. CCC(C)(C)c1ccc(OCCCCNC(=O)c2cc(Oc3ccc([N+](=O)[O-])cc3)c3ccccc3c2O)c(C(C)(C)CC)c1  0.038
6. CCCOc1ccc(C(=O)OCCN(CC)CC)cc1NS(=O)(=O)/C=C/c1ccccc1  -0.033
7. CC(NCCCCCO)c1cc(OCc2ccccc2)cc(OCc2ccccc2)c1 (stereo unspecified)  -0.076

test system: MDA-MB-231; experiment: Growth inhibition of human MDA-MB-231 cells assessed as 1-relative growth at 10 uM after 3 days by DNA dye binding assay; type: functional

In order of falling Activity:
1. OC(COc1ccc(OCC(O)CN2CCN(C3c4ccccc4-c4ccccc43)CC2)cc1)CN1CCN(C2c3ccccc3-c3ccccc32)CC1 (stereo unspecified)  0.88
2. CCCCCCCCCCCCCCNC(=O)[C@@H](N)CCN  0.69
3. CC(C)(NC(=O)CN1C(=O)c2ccccc2C1=O)C(=O)NCCCC[C@H](NC(=O)CC(O)(C(F)(F)F)C(F)(F)F)C(=O)O  0.608
4. CCOC(=O)C(NC(=O)CN[C@H]1CCCc2sccc21)C(=O)OCC  0.531
5. CCC(C)(C)c1ccc(OCCCCNC(=O)c2cc(Oc3ccc([N+](=O)[O-])cc3)c3ccccc3c2O)c(C(C)(C)CC)c1  0.398
6. CNCC(=O)N[C@@H](CCCNC(=N)N)C(=O)N[C@H](C(=O)N[C@@H](Cc1ccc(O)cc1)C(=O)N[C@H](C(=O)N[C@@H](Cc1cnc[nH]1)C(=O)O)C(C)C)C(C)C (H-[Sar]RVYVH-OH)  0.158
7. CCOC(=O)C[C@@H](CC(=O)NCCN[C@H](C)c1ccc(O)c(C(=O)OC)c1)OC(C)=O  0.096
8. CCCOc1ccc(C(=O)OCCN(CC)CC)cc1NS(=O)(=O)/C=C/c1ccccc1  0.043
9. CC(NCCCCCO)c1cc(OCc2ccccc2)cc(OCc2ccccc2)c1 (stereo unspecified)  0.036
10. CCCCCCCCCCCCCCCC(=O)N[C@@H](CCCCN)C(=O)N[C@@H](CCCCN)C(=O)OC  -0.089

molecular target: T1, Ribonucleoside-diphosphate reductase large subunit (Homo sapiens, UniProt P23921); experiment: Inhibition of human ribonucleotide reductase M1 subunit expressed in Escherichia coli BL21 (DE3) using 14C-ADP as substrate by liquid scintillation counting analysis
T1 sequence (P23921 whole entry): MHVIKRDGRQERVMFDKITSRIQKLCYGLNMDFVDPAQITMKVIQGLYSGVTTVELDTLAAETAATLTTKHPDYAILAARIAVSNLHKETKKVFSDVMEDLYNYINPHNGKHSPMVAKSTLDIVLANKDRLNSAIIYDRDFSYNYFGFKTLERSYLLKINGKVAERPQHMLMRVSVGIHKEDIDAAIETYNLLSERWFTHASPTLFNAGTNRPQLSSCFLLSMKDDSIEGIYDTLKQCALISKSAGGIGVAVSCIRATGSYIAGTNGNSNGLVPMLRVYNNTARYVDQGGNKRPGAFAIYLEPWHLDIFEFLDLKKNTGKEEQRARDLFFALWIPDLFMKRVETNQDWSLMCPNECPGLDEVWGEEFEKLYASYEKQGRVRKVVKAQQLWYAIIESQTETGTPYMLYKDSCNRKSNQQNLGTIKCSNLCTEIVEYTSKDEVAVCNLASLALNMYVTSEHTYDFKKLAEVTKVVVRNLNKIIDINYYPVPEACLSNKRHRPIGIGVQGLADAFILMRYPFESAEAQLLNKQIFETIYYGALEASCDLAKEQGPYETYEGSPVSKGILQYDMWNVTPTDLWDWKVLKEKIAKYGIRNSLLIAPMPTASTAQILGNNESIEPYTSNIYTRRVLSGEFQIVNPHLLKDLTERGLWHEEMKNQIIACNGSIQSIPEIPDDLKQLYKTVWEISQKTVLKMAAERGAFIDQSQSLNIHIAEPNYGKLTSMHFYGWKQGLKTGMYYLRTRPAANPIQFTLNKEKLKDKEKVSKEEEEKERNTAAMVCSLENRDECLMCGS

With `NC(=O)NO` [HYDROXYUREA] the IC50 was 997 µM.

test system: MDA-MB-231; experiment: Potentiation of gemcitabine-induced cytotoxicity against human MDA-MB-231 assessed as effective dose of gemcitabine at 2.5 uM after 72 hrs MTT assay (reference value: 0.92 uM); type: functional

In the case of `OC(COc1ccc(OCC(O)CN2CCN(C3c4ccccc4-c4ccccc43)CC2)cc1)CN1CCN(C2c3ccccc3-c3ccccc32)CC1` (stereo unspecified), the ED is reported as 0.1 µM.

test system: MDA-MB-231; experiment: Growth inhibition of human MDA-MB-231 cells assessed as 1-relative growth at 1 uM after 3 days by DNA dye binding assay; type: functional

In order of falling Activity:
1. CNCC(=O)N[C@@H](CCCNC(=N)N)C(=O)N[C@H](C(=O)N[C@@H](Cc1ccc(O)cc1)C(=O)N[C@H](C(=O)N[C@@H](Cc1cnc[nH]1)C(=O)O)C(C)C)C(C)C (H-[Sar]RVYVH-OH)  0.108
2. CCOC(=O)C[C@@H](CC(=O)NCCN[C@H](C)c1ccc(O)c(C(=O)OC)c1)OC(C)=O  0.098
3. CCCCCCCCCCCCCCNC(=O)[C@@H](N)CCN  0.072
4. CC(C)(NC(=O)CN1C(=O)c2ccccc2C1=O)C(=O)NCCCC[C@H](NC(=O)CC(O)(C(F)(F)F)C(F)(F)F)C(=O)O  0.057
5. CCC(C)(C)c1ccc(OCCCCNC(=O)c2cc(Oc3ccc([N+](=O)[O-])cc3)c3ccccc3c2O)c(C(C)(C)CC)c1  0.038
6. CCCOc1ccc(C(=O)OCCN(CC)CC)cc1NS(=O)(=O)/C=C/c1ccccc1  -0.033
7. CC(NCCCCCO)c1cc(OCc2ccccc2)cc(OCc2ccccc2)c1 (stereo unspecified)  -0.076
8. CCOC(=O)C(NC(=O)CN[C@H]1CCCc2sccc21)C(=O)OCC  -0.199
9. CCCCCCCCCCCCCCCC(=O)N[C@@H](CCCCN)C(=O)N[C@@H](CCCCN)C(=O)OC  -0.219
10. OC(COc1ccc(OCC(O)CN2CCN(C3c4ccccc4-c4ccccc43)CC2)cc1)CN1CCN(C2c3ccccc3-c3ccccc32)CC1 (stereo unspecified)  -0.396
